Test results taken from PubChem BioAssay (NCI).
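Cultured in 96-well plates, cells were exposed to test compound for 48 hours across five concentrations. The concentration for 50% growth inhibition is given as GI50. At the TGI there is no net growth.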

Tests used:
Assay in all cases: NCI-60 cell line screen, 48 h
[1] = tested on: NCI-H522 lung
[2] = tested on: HOP-62 NSCLC
[3] = tested on: ACHN renal
[4] = tested on: T-47D breast
[5] = tested on: MOLT-4 leukemia
[6] = tested on: A549 NSCLC
[7] = tested on: OVCAR-4 ovarian
[8] = tested on: SF-268 CNS
[9] = tested on: SF-295 CNS
[10] = tested on: KM12 colon
[11] = tested on: PC-3 prostate
[12] = tested on: SK-MEL-2 melanoma
[13] = tested on: K-562 leukemia
[14] = tested on: BT-549 breast
[15] = tested on: HCT-15 colon
[16] = tested on: M14 melanoma
[17] = tested on: SR leukemia
[18] = tested on: A498 renal
[19] = tested on: MDA-MB-435
[20] = tested on: OVCAR-8 ovarian
[21] = tested on: HOP-92 NSCLC
[22] = tested on: HCC-2998 colon
[23] = tested on: RXF 393 renal
[24] = tested on: MDA-MB-231 breast
[25] = tested on: RPMI-8226 leukemia
[26] = tested on: U251 CNS
[27] = tested on: CCRF-CEM leukemia
[28] = tested on: COLO 205 colon
[29] = tested on: SF-539 CNS
[30] = tested on: UACC-62 melanoma
[31] = tested on: HT29 colon
[32] = tested on: SK-MEL-28 melanoma
[33] = tested on: LOX IMVI melanoma
[34] = tested on: UACC-257 melanoma
[35] = tested on: IGROV1 ovarian
[36] = tested on: HCT-116 colon
[37] = tested on: UO-31 renal
[38] = tested on: HL-60(TB) leukemia
[39] = tested on: OVCAR-5 ovarian
[40] = tested on: CAKI-1 renal
[41] = tested on: SN12C renal
[42] = tested on: OVCAR-3 ovarian
[43] = tested on: NCI-H460 lung
[44] = tested on: HS 578T breast
[45] = tested on: 786-0 renal
[46] = tested on: SK-OV-3 ovarian
[47] = tested on: DU-145 prostate
[48] = tested on: NCI-H226 lung
[49] = tested on: MALME-3M melanoma
[50] = tested on: SNB-19 CNS
[51] = tested on: SNB-75 CNS
[52] = tested on: MCF7 breast
[53] = tested on: SW-620 colon
[54] = tested on: NCI-H23 lung
[55] = tested on: SK-MEL-5 melanoma
[56] = tested on: EKVX NSCLC
[57] = tested on: NCI/ADR-RES ovarian
[58] = tested on: TK-10 renal

CCO/C=N/C1=C(C#N)C(c2ccc(OC)cc2)c2sc3c(C)cccc3c2O1 (stereo unspecified)
GI50 [1]: 426 nM | TGI [1]: 10 µM | GI50 [2]: 552 nM | TGI [2]: > 60.3 µM | GI50 [3]: 699 nM | TGI [3]: > 100 µM | GI50 [4]: 561 nM | TGI [4]: > 100 µM | GI50 [5]: 540 nM | TGI [5]: > 24.3 µM | GI50 [6]: 898 nM | TGI [6]: > 100 µM | GI50 [7]: 1480 nM | TGI [7]: > 100 µM | GI50 [8]: 766 nM | TGI [8]: > 100 µM | GI50 [9]: 362 nM | TGI [9]: > 37.8 µM | GI50 [10]: 452 nM | TGI [10]: > 100 µM | GI50 [11]: 494 nM | TGI [11]: > 100 µM | GI50 [12]: 1140 nM | TGI [12]: > 100 µM | GI50 [13]: 333 nM | TGI [13]: > 100 µM | GI50 [14]: 650 nM | TGI [14]: > 58.5 µM | GI50 [15]: 447 nM | TGI [15]: > 38.1 µM | GI50 [16]: 421 nM | TGI [16]: > 45 µM | GI50 [17]: 376 nM | TGI [17]: 7.84 µM | GI50 [18]: 291 nM | TGI [18]: 1100 nM | GI50 [19]: 243 nM | TGI [19]: 677 nM | GI50 [20]: 716 nM | TGI [20]: > 100 µM | GI50 [21]: 851 nM | TGI [21]: > 55.2 µM | GI50 [22]: 1070 nM | TGI [22]: 7.78 µM | GI50 [23]: 233 nM | TGI [23]: 707 nM | GI50 [24]: 1570 nM | TGI [24]: > 45 µM | GI50 [25]: 417 nM | TGI [25]: 15.1 µM | GI50 [26]: 510 nM | TGI [26]: > 39.5 µM | GI50 [27]: 459 nM | TGI [27]: > 100 µM | GI50 [28]: 818 nM | TGI [28]: 6.69 µM | GI50 [29]: 316 nM | TGI [29]: 1910 nM | GI50 [30]: 514 nM | TGI [30]: > 100 µM | GI50 [31]: 1140 nM | TGI [31]: 35.5 µM | GI50 [32]: 3.42 µM | TGI [32]: > 100 µM | GI50 [33]: 665 nM | TGI [33]: > 40.3 µM | GI50 [34]: > 43.5 µM | TGI [34]: > 100 µM | GI50 [35]: 515 nM | TGI [35]: > 100 µM | GI50 [36]: 402 nM | TGI [36]: > 38.4 µM | GI50 [37]: 562 nM | TGI [37]: > 100 µM | GI50 [38]: 290 nM | TGI [38]: 1730 nM | GI50 [39]: 3.16 µM | TGI [39]: > 100 µM | GI50 [40]: 321 nM | TGI [40]: > 100 µM | GI50 [41]: 831 nM | TGI [41]: > 52.3 µM | GI50 [42]: 394 nM | TGI [42]: > 100 µM | GI50 [43]: 407 nM | TGI [43]: > 100 µM | GI50 [44]: 350 nM | TGI [44]: > 47.8 µM | GI50 [45]: 469 nM | TGI [45]: > 62.4 µM | GI50 [46]: 794 nM | TGI [46]: > 100 µM | GI50 [47]: 571 nM | TGI [47]: > 100 µM | GI50 [48]: 457 nM | TGI [48]: > 30.7 µM | GI50 [49]: 603 nM | TGI [49]: > 100 µM | GI50 [50]: 518 nM | TGI [50]: > 100 µM | GI50 [51]: 203 nM | TGI [51]: 774 nM | GI50 [52]: 347 nM | TGI [52]: > 81.2 µM | GI50 [53]: 527 nM | TGI [53]: > 100 µM | GI50 [54]: 545 nM | TGI [54]: > 100 µM | GI50 [55]: 500 nM | TGI [55]: > 46.5 µM | GI50 [56]: 932 nM | TGI [56]: > 100 µM | GI50 [57]: 444 nM | TGI [57]: > 100 µM | GI50 [58]: 22.7 µM | TGI [58]: > 100 µM
